Source: ChEMBL document CHEMBL5233278, “Recent Advances in the Medicinal Chemistry of Farnesoid X Receptor” (J Med Chem, 2021)
Blank lines part the entries; values can stand above or below the molecule they belong to.

Experiments:
[1] = molecular target: T1, Bile acid receptor (Homo sapiens, UniProt Q96RI1); assay: Agonist activity at FXR in HEK293T cells by steady-glo luciferase assay; assay type: cell-based
T1 sequence (Q96RI1 whole entry): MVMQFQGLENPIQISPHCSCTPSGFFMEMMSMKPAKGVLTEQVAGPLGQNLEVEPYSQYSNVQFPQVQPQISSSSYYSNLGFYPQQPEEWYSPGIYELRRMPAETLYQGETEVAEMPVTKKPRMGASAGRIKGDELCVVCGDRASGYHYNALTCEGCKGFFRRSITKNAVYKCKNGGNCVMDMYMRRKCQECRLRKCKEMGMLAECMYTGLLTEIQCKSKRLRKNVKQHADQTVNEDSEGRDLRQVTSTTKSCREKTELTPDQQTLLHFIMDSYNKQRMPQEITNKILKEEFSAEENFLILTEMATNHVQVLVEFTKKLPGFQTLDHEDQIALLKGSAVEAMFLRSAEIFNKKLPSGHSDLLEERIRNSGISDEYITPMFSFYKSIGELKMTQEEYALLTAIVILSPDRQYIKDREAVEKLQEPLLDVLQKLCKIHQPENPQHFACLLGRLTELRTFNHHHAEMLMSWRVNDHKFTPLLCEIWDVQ

[2] = molecular target: Bile acid receptor (Homo sapiens) (UniProt Q96RI1); assay: Agonist activity at FXR in human HepG2 cells at 3 uM relative to control; settings: filed as agonist
[3] = molecular target: Bile acid receptor (Homo sapiens) (UniProt Q96RI1); assay: Agonist activity at FXR in human HepG2 cells coexpressing BSEP at 0.3 uM relative to control; settings: filed as agonist
[4] = molecular target: T1, Bile acid receptor; assay: Agonist activity at human FXR
[5] = molecular target: T1, Bile acid receptor; assay: Agonist activity at human FXR in expressed in CHO cells by luciferase reporter assay; assay type: cell-based
[6] = molecular target: Voltage-gated inwardly rectifying potassium channel KCNH2 (Homo sapiens, UniProt Q12809); assay: Inhibition of hERG; assay type: toxicity
[7] = molecular target: T1, Bile acid receptor; assay: Agonist activity at FXR (unknown origin)
[8] = molecular target: T2, Bile acid receptor (Homo sapiens) (UniProt Q96RI1); assay: Agonist activity at human FXR expressed in CHO cells assessed as maximum efficacy incubated for 22 hrs by luciferase reporter assay relative to control; assay type: cell-based
T2 sequence (whole entry): T1 sequence (Q96RI1 whole entry)

[9] = molecular target: T1, Bile acid receptor; assay: Agonist activity at human GST-tagged FXR incubated for 1 hrs by alphascreen assay
[10] = molecular target: T1, Bile acid receptor; assay: Agonist activity at FXR in HEK293T cells incubated for 24 hrs by Steady-Glo luciferase assay; assay type: cell-based
[11] = molecular target: T1, Bile acid receptor; assay: Agonist activity at FXR (unknown origin) incubated for 180 mins by TR-FRET assay
[12] = molecular target: T3, Bifunctional epoxide hydrolase 2 (Homo sapiens, UniProt P34913); assay: Inhibition of sEH (unknown origin)
T3 sequence (P34913 whole entry): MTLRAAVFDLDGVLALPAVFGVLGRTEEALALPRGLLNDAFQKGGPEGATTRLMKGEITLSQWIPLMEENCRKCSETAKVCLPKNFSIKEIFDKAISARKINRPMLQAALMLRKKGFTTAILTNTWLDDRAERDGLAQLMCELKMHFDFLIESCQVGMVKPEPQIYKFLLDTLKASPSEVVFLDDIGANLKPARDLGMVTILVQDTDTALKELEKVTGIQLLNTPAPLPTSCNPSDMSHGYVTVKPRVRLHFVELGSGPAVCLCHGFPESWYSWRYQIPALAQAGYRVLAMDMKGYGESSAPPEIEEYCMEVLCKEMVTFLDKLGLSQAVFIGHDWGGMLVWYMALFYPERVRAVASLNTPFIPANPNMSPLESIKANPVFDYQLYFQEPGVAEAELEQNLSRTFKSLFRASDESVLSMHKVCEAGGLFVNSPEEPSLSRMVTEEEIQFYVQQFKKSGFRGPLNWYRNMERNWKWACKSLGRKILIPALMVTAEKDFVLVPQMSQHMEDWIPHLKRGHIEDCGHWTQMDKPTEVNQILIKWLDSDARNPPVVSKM

[13] = molecular target: T1, Bile acid receptor; assay: Agonist activity at FXR in human HeLa cells incubated for 24 hrs by Dual-Glo luciferase assay; assay type: cell-based; settings: hela

Sequence of Voltage-gated inwardly rectifying potassium channel KCNH2 (Q12809 whole entry): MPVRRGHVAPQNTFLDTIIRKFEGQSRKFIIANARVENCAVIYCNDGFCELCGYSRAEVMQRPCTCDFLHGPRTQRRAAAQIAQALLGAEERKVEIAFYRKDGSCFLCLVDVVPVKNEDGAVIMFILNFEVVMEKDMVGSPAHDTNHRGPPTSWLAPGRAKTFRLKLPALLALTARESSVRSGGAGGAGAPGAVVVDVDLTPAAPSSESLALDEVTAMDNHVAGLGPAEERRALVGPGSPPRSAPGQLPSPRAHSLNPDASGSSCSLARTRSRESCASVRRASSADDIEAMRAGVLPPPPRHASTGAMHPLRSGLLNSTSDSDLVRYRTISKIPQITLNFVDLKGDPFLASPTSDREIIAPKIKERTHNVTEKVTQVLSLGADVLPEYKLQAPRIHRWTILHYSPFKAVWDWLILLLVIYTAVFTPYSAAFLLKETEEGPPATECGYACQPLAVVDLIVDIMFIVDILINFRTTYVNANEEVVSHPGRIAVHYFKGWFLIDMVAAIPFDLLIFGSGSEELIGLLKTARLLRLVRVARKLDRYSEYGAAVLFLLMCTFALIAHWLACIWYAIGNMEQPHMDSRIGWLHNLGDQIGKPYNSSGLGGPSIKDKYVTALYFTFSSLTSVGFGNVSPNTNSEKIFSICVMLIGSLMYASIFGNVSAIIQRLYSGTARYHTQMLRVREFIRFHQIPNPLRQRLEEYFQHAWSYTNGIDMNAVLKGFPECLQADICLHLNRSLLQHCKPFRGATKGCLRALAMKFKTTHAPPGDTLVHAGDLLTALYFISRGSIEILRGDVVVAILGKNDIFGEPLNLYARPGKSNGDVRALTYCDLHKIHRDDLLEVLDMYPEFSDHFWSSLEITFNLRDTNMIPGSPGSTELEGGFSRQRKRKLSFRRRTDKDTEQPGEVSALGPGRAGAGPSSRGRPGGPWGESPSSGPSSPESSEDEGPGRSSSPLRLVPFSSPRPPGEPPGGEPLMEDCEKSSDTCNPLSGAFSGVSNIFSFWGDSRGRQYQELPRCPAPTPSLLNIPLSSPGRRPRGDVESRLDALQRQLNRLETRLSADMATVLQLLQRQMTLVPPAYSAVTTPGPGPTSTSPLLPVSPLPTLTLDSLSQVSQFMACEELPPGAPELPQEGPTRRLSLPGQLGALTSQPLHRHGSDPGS

EC50 [1]: 10 nM
SMILES: O=C(O)c1ccc2c(c1)CN(C(=O)N1[C@@H]3CC[C@H]1C[C@@H](OCc1c(-c4c(Cl)cccc4Cl)noc1C1CC1)C3)C2

Activity [2]: 185%
SMILES: O=C(O)c1ccc2nc(N3C[C@@H]4C[C@H]3C[C@H]4OCc3c(-c4c(Cl)cccc4Cl)noc3C3CC3)sc2c1
Activity [3]: 166%

EC50 [4]: < 30 nM
SMILES: CC(C)Oc1cc(C(=O)NS(=O)(=O)N2CCCC2)cc2sc(O[C@@H]3CO[C@H]4[C@H]3OC[C@H]4OCc3c(-c4c(Cl)cccc4Cl)noc3C3CC3)nc12

SMILES: CC[C@H]1[C@@H](O)[C@@H]2[C@H](CC[C@]3(C)[C@@H]([C@H](C)COC(=O)NS(=O)(=O)c4ccc(OC(C)C)cc4)CC[C@@H]23)[C@@]2(C)CC[C@@H](O)C[C@@H]12
EC50 [5]: < 1 nM

SMILES: Cc1cc(OCc2c(-c3c(Cl)cccc3Cl)noc2C2CC2)ccc1C1=NOC(c2cc(C(=O)O)nn2C(C)C)C1 (stereo not drawn)
IC50 [6]: > 30000 nM

SMILES: Cc1cc(OCc2c(-c3c(Cl)cccc3Cl)noc2C2CC2)ccc1C1=NOC(c2cc(C(=O)O)ccn2)C1 (stereo not drawn)
IC50 [6]: > 30000 nM

EC50 [7]: < 50 nM
SMILES: Cc1cc(NS(=O)(=O)N2[C@@H]3CC[C@H]2C[C@@H](OCc2c(-c4c(Cl)cccc4Cl)noc2C2CC2)C3)ccc1C(=O)O

Emax [8]: 28%
SMILES: COc1cc(Cl)cc(N(CC23CCC(c4ccc(OC)c(C#N)c4)(CC2)CC3)C(=O)c2ccncc2C)c1

EC50 [9]: 9 nM
SMILES: O=C1CCc2cc(OCc3c(-c4c(Cl)cccc4Cl)noc3C3CC3)ccc2N1c1ncc(O)cc1F

EC50 [4]: < 30 nM
SMILES: CC(C)Oc1cc(C(=O)NS(=O)(=O)N2CCCCC2)cc2sc(O[C@@H]3CO[C@H]4[C@H]3OC[C@H]4OCc3c(-c4c(Cl)cccc4Cl)noc3C3CC3)nc12

EC50 [10]: 205 nM
SMILES: CC(C)COc1ccc(-c2nnc(-c3ccc(C(=O)O)cc3)o2)cc1

EC50 [11]: 1.7 nM
SMILES: O=C(O)CNC(=O)c1ccc(N2CCC3(CC2)CC(OCc2c(-c4ccccc4OC(F)(F)F)noc2C2CC2)CO3)nc1 (stereo not drawn)

EC50 [7]: 7.7 nM
SMILES: O=C(O)c1cc(F)c2nc(N3[C@@H]4CC[C@H]3C[C@@H](OCc3c(-c5c(Cl)cccc5Cl)noc3C3CC3)C4)sc2c1

EC50 [11]: 26.9 nM
SMILES: CS(=O)(=O)NC(=O)c1ccc(N2CCC3(CC2)CC(OCc2c(-c4ccccc4OC(F)(F)F)noc2C2CC2)CO3)nc1 (stereo not drawn)

SMILES: O=S(O)c1cc(F)c2nc(N3[C@@H]4CC[C@H]3C[C@@H](OCc3c(-c5ccccc5OC(F)(F)F)noc3C3CC3)C4)sc2c1
EC50 [1]: < 500 nM

EC50 [4]: < 30 nM
SMILES: CC(C)Oc1cc(C(=O)O)cc2sc(O[C@@H]3CO[C@H]4[C@@H]3OC[C@H]4OCc3c(-c4ccccc4OC(F)(F)F)noc3C3CC3)nc12

Activity [2]: 88%
SMILES: C[C@H]1CC(OCc2c(-c3c(Cl)cccc3Cl)noc2C2CC2)C[C@H](C)N1c1nc2ccc(C(=O)O)cc2s1 (stereo partly drawn)
Activity [3]: 100%

EC50 [7]: < 50 nM
SMILES: O=C(O)c1ccc(-c2nc(N3[C@@H]4CC[C@H]3C[C@@H](OCc3c(-c5c(Cl)cccc5Cl)noc3C3CC3)C4)no2)cc1

EC50 [9]: 20 nM
SMILES: O=C(O)c1ccc(N2C(=O)CCc3cc(OCc4c(-c5c(Cl)cccc5Cl)noc4C4CC4)ccc32)nc1

IC50 [12]: 2900 nM | EC50 [13]: 3500 nM
SMILES: CC(C)(C)c1ccc(C(=O)Nc2ccc3ccn(Cc4ccc(C(=O)O)cc4)c3c2)cc1
